# Assay results from patent US10517952B2, “Nucleophile-triggered degradable materials and methods of making and using the same” (GEORGIA TECH RESEARCH CORPORATION, priority 2014, dated 2019).
# What was measured:
# [1] = Release of entrained cargo from PEG-OND hydrogels; assay type: physicochemical; settings: pH 7.4 PBS, 37° C.; first-order fit
# Description: Finally, the diffusion of entrained, rather than covalently anchored, cargos of different sizes out of OND hydrogels of differing stabilities was measured. This was done with a small molecule (carboxyfluorescein), a globular protein (fluorescein-labeled bovine serum albumin, BSA), and a 30-nm protein nanoparticle (fluorescein-labeled bacteriophage Qb virus-like particle). The first and last species have no available thiol groups; the second was reacted with N-ethylmaleimide before gelation to cap cysteine-34 and avoid tethering of the protein cargo to the hydrogel network. Hydrogels derived from 4-PEG-SH and 7a, 7b, or 8 were formed in the presence of each cargo; the speed of this reaction made it highly unlikely that OND connectors were addressed by protein amine groups under these conditions.
# Three sets of three 60 μL gels were prepared using linkers 7a, 7b, and 8, respectively. The first set contained 1 mM small molecule probe 5/6-carboxyfluorescein, while the second and third sets contained FITC labeled BSA and Qβ virus-like particle, respectively. The gels were allowed to set for 30 minutes at room temperature before dilution with 3 mL of pH 7.4 100 mM phosphate buffered saline. The samples were incubated at 37° C. and the increase in absorbance of the supernatant at 497 nm was monitored. The fraction of released dye was plotted against incubation time. Least-squares kinetic fitting to a first-order rate law was performed for release profiles obtained for carboxyfluorescein cargo, and for the release of BSA from non-degradable PEG-EONB (8) hydrogel (Solver plug-in, Microsoft Excel).
# [2] = Equilibrium swelling, gel fraction and Mc (Flory-Rehner) of PEG-OND hydrogels; assay type: physicochemical; settings: for Mc (apparent molecular weight between elastic crosslinks): calculated with the Flory-Rehner equation from swelling results; for Gel Fraction: mass of dry residue post-swelling/input mass of OND and 4-PEG-SH; for Equilibrium Swelling Ratio: mass post-swelling/mass pre-swelling, deionized water, 4° C., 24 hours, n = 3 gels
# Description: The swelling of the PEG-OND hydrogels in deionized water was measured at 4° C. to prevent significant fragmentation during the experiment. […] An independent experiment measuring soluble fraction thiol content yielded results complementing those obtained gravimetrically (Table S3, and related discussion below). With the knowledge that small molecules can readily permeate swollen PEG-OND hydrogels (see below), detecting and modifying residual thiols in gels prepared from divalent linkers 7a and 8 by swelling in the presence of a fluorogenic OND derivative was attempted (FIG. 15, and related discussion below).
# 200 μL gels were prepared in pH 7.4 100 mM phosphate buffered saline containing 7% DMSO with 3.5 wt % 4-PEG-SH and the corresponding bis-, tris-, and tetra-ONDs to provide a 1:1 thiol to electrophile ratio, and allowed to cure for 20 minutes at room temperature. The mass of the gels after curing was recorded (Meq) before suspending in 5.5 mL of water. The hydrogels were stored at 4° C. during swelling to prevent significant degradation of the network during the experiment. The increase in mass of the gels was monitored periodically by decanting and blotting the gel gently with a kimwipe to remove excess water before weighing. After 24 hours swelling, when swelling had stabilized, the mass of the gel was recorded (Meq). The equilibrium mass swelling ratio was then determined using the following relationship:
# After weighing equilibrium-swelled gels to determine equilibrium mass swelling ratio, the gels were freeze-dried and the residual mass was weighed (Mres). It is expected that buffer salts present in the sample when it was formed were removed by the multiple changes of swelling solvent (pure water). The mass of the remaining residue was compared to the input mass (Min) of 4-PEG-SH macromer and OND-based linker. The ratio of the residual mass and the input mass provides the fraction of material by mass incorporated into the hydrogel network (gel fraction), as shown in the following equation: […]
# The apparent molecular weight between elastically-productive crosslinks (Mc) was determined from equilibrium swelling data, collected as described in section VII.1 and applying a modified form of the Flory-Rehner equation for networks formed under dilute conditions:
# [formula] where Mn is the number average molecular weight for the polymeric macromer (10,000 g/mol), v is the specific volume of the polymer ([…] for PEG) V1 is the molar volume of solvent used for swelling ([…] for water), χ is the polymer-interaction parameter (0.43 for PEG-H2O and assumed constant for the described experiments). V2, and V2, are the volume fraction of polymer in the equilibrium swollen gel and the relaxed gel after curing, respectively, and are calculated as follows:
# [formula] where qw is the weight swelling ratio after equilibrium swelling, qF is the weight swelling ratio after curing, ρp is the density of the polymer (1.12 g/cm^3 for PEG), ρwater=ρcure solvent is the density of swelling solvent and solvent during gel formation (1.00 g/cm^3 for water). The weight swelling ratios qw and qF are determined from data gathered in equilibrium swelling experiments using the following relationships:
# [formula] where ms is the mass of the gel after equilibrium swelling, mc is the mass of the gel after curing, and md is the mass of the dried gel, or input mass of polymer and crosslinkers.
# Using the formulae above, masses of hydrogel samples recorded after equilibrium swelling, curing, and drying were applied to estimate the apparent molecular weight between crosslinks, which are summarized in Table 1 of the main text. The experimentally observed Mc values for gels formed using divalent OND linkers was lower than theoretical ideal value Mc,ideal. This can be explained by the fact that the Mc,ideal values calculated for these gels (entries 1-5 of Table S1) are greater than the entanglement molecular weight for polyethylene glycol (˜4,400 g/mol). […]
# [3] = Degradation of neat PEG-OND hydrogels (inversion test, time-lapse photography); assay type: physicochemical; settings: neat gel; for Time gel is stable / collapses (inversion test): no swelling buffer
# Description: Degradation rates of the PEG-OND hydrogels in the absence of swelling buffer varied with temperature and with the identity of OND used to form the gel. […] In comparison, gels formed using 7b were stable for more than 60 hours at 37° C., and approximately 13 hours at 50° C.
# Three 500 μL 3.5 wt % hydrogels were formed with bis-ONDs 7a and 7b, and bis-EONB 8, respectively, in 2 mL vials with caps. The sealed vials were incubated in an oil bath maintained at 50° C. The samples were periodically removed from heat and the vials were inverted to determine if the gel was still intact, or whether the sample was a free-flowing liquid, as described in the main text. The gel formed between 4-PEG-SH and bis-EONB 8 in FIG. 9 was removed from heat after 5 days, and stored at room temperature in a sealed vial. The hydrogel is still intact at the time of writing (5 days at 50° C. followed by >1 year at room temperature). The inversion test was routinely used in all stability experiments to verify hydrogel integrity during incubation.
# In order to observe reverse gelation upon prolonged heating of neat hydrogels, time-lapse photography was carried out. Briefly, 600 μL hydrogels comprised of 3.5 wt % 4-PEG-SH+bis-OND/EONB (7a, 7b, and 8, respectively) in pH 7.4 100 mM potassium phosphate buffer containing 7% DMSO (v/v) were formed in glass culture tubes and allowed to set for 15 minutes. A glass bead (˜160 mg, stained with blue Sharpie-brand marker to improve visibility) was placed carefully on top of each gel, and a drop of silicon oil was added to prevent evaporation at the surface of the gels. The tubes were sealed with lab parafilm and incubated in a 50° C. oil bath. Photos were collected every 2 minutes for ˜22 hours using Chronolapse software (v.1.0.4) and a Creative Labs webcam. Photographs were compiled in chronological order using iMovie software, with each photo occupying one 0.1 s frame. The resulting video is available as S1 Video, mentioned above.
# [4] = Calculation of hydrogel mesh size from equilibrium swelling data; assay type: physicochemical; settings: for Calculated mesh size: equilibrium-swollen gels
# Description: Using the calculated molecular weight between crosslinks, Mc, and the method previously described by Canal and Peppas, the hydrogel mesh size was calculated. First, the root-mean-square end-to-end distance of the polymer chains in the network, (r0^2)^1/2, was calculated as follows: (r0^2)^1/2=lCn^1/2n^1/2 (Equation S10) where l is the average bond length in the polymer (0.146 nm for PEG) and Cn is the characteristic ratio of the polymer (4.0 for PEG). The average number of bonds between crosslinks, n is calculated using the following equation:
# [formula] where Mc is the average molecular weight between crosslinks, calculated as described in the previous section, and Mr is the molecular weight of the repeating unit for the PEG macromer (44 g/mol). Finally, the mesh size, ξ, is calculated using the following relationship: ξ=v2,s^−1/3(r0^2)^1/2 (Equation S12) where v2, is the partial volume of polymer in the equilibrium swollen hydrogel, and is calculated using the experimentally determined equilibrium weight swelling ratios.
Gel integrity on extended heating (inversion test) ([3]; 50° C.),"Gel stability by time-lapse photography, gel supporting a glass bead ([3]; heating (50° C.))",Time gel is stable / collapses (inversion test) ([3]; 37° C.),Time gel is stable / collapses (inversion test) ([3]; 50° C.),"Average mesh size ([4]; average for equilibrium swelled hydrogels from linkers 7a, 7b and 8) [nm]",Compound,kdiffusion of entrained cargo out of PEG-OND hydrogels [1] [h⁻¹],Mc (apparent molecular weight between elastic crosslinks) [2] [g/mol],Gel Fraction [2],Equilibrium Swelling Ratio [2],melting point [°C],Calculated mesh size [4] [nm]
–,–,–,–,–,5/6-carboxyfluorescein [reference compound],0.66 ± 0.03,–,–,–,–,–
collapsed,more stable than those made with 7a,more than 60 hours,approximately 13 hours,14.0±1.0,"CCOC(=O)C1=C(C(F)(F)F)C2C=CC1(CNC(=O)CCCC(=O)NCC13C=CC(O1)C(C(F)(F)F)=C3C(=O)OCC)O2 [Linker 7b, Diethyl 1,1′-((glutaroylbis(azanediyl))bis(methylene))bis(3-(trifluoromethyl)-7-oxabicyclo[2.2.1]hepta-2,5-diene-2-carboxylate)]",–,3698 ± 16,0.96 ± 0.02,1.40 ± 0.02,166 to 169,13.1 ± 0.1
–,–,–,–,–,"CCOC(=O)C1=C(C(F)(F)F)C2C=CC1(CNC(=O)CCCC(=O)NCC13C=CC(O1)C(C(=O)OC)=C3C(=O)OC)O2 (centres unmarked) [Linker 10, Dimethyl 1-((5-(((2-(ethoxycarbonyl)-3-(trifluoromethyl)-7-oxabicyclo[2.2.1]hepta-2,5-dien-1-yl)methyl)amino)-5-oxopentanamido)methyl)-7-oxabicyclo[2.2.1]hepta-2,5-diene-2,3-dicarboxylate]",–,4112 ± 94,0.98 ± 0.04,1.87 ± 0.12,93 to 97,15.1 ± 1.3
–,–,–,–,–,"Bovine serum albumin: globular protein cargo, fluorescein-labeled bovine serum albumin",0.05 ± 0.01,–,–,–,–,–
